Source: patent publication US20170205395A1, “METHODS FOR PROVIDING PERSONALIZED MEDICINE TEST EX VIVO FOR HEMATOLOGICAL NEOPLASMS” (priority 2009, published 2017)
Like-named read-outs stand apart in the source and are kept apart here.

Assays:
malignant CLL cells = format: cell-based; conditions: for ex vivo efficacy in killing malignant cells compared with approved cytotoxic drugs: CLL ex vivo samples, FIG. 6; for induction of apoptosis after 24 hours: CLL whole blood samples, 24 hours incubation, FIG. 8; for ex vivo patient response: 30 μM; for ability of SSRIs to induce apoptosis in malignant CLL cells: FIG. 9
[1] = test system: patients with Chronic Lymphocytic Leukemia; conditions: cited from earlier work
T and NK cells = experiment: Ex vivo Annexin V flow cytometry apoptosis assay in CLL whole blood, non-malignant cells; format: cell-based, human; conditions: approximately 30 μM, whole blood sample from a CLL patient, FIG. 7
MOLT-4 cells = experiment: Apoptosis ELISA (one step sandwich ELISA of histone-complexed DNA fragments); format: cell-based, human; conditions: 24 hours, FIG. 20
Source text: The one step sandwich ELISA is based in the quantification of histone-complexed DNA fragments (mono- and oligonucleosomes) out of the cytoplasm of cells after the induction of apoptosis or when released from necrotic cells.

[2] = test system: active caspase-3 in MOLT-4 cells; experiment: Active caspase-3 determination by Western blot; format: cell-based, human; conditions: 24 hours, FIG. 21
Method: Caspase-3 activation was determined using a Western blot of extracts from two acute lymphoblastic cell lines (TOM-1 and MOLT-4) exposed to increased concentrations of sertraline. […] Active caspase-3 is a protease that serves as a marker of apoptosis.

[3] = CLL sample, maximum concentrations, cyclophosphamide tested as its metabolite maphosphamide, FIG. 22

## COc1ccc(CCN2CCC(Nc3nc4ccccc4n3Cc3ccc(F)cc3)CC2)cc1 [astemizole]
Malignant CLL cells
  ex vivo efficacy in killing malignant cells compared with approved cytotoxic drugs: ex vivo efficacy similar to that of the approved cytotoxic drugs

## O=C(O)CCCc1ccc(N(CCCl)CCCl)cc1 [chlorambucil]
Malignant CLL cells; CLL patient sample, low concentrations, lower curve of FIG. 11
  induction of apoptosis by the drug alone: did not induce much apoptosis
Malignant CLL cells
  induction of apoptosis after 24 hours: ~45%
[1]; CLL patients with ITRT result DI (Drug Intermediate)
  % of patients responding: 66.3 (92) %
[1]; CLL patients with ITRT result DR (Drug Resistant)
  % of patients responding: 37.6 (24) %
[1]; CLL patients with ITRT result DS (Drug Sensitive)
  % of patients responding: 85.1 (94) %
[1]; all CLL patients (Total)
  % of patients responding: 71.5 (210) %

## O=P1(N(CCCl)CCCl)NCCCO1 (centres unmarked) [cyclophosphamide]
Malignant CLL cells
  ex vivo efficacy (resistant / sensitive): resistant

## COc1cccc2c1C(=O)c1c(O)c3c(c(O)c1C2=O)C[C@@](O)(C(=O)CO)C[C@@H]3O[C@H]1C[C@H](N)[C@H](O)[C@H](C)O1 [doxorubicin]
Malignant CLL cells; the two patients denoted by a star, FIG. 4
  ex vivo patient response: very effective

## Nc1nc(F)nc2c1ncn2[C@@H]1O[C@H](CO)[C@@H](O)[C@@H]1O [fludarabine]
Malignant CLL cells
  induction of apoptosis after 24 hours: approximately 40%

## CNCCC(Oc1ccc(C(F)(F)F)cc1)c1ccccc1 (centres unmarked) [fluoxetine]
Malignant CLL cells
  ex vivo efficacy in killing malignant cells compared with approved cytotoxic drugs: ex vivo efficacy similar to that of the approved cytotoxic drugs
  ability of SSRIs to induce apoptosis in malignant CLL cells: induce apoptosis similarly to clinically approved cytotoxic drugs

## COCCCC/C(=N\OCCN)c1ccc(C(F)(F)F)cc1 [fluvoxamine]
Malignant CLL cells
  ability of SSRIs to induce apoptosis in malignant CLL cells: only 3 (paroxetine, fluoxetine, and sertraline) induce apoptosis similarly

## N=C(N)N/N=C/c1c(Cl)cccc1Cl [guanabenz]
Malignant CLL cells
  ex vivo efficacy in killing malignant cells compared with approved cytotoxic drugs: ex vivo efficacy similar to that of the approved cytotoxic drugs

## O=C1c2c(O)ccc(O)c2C(=O)c2c(NCCNCCO)ccc(NCCNCCO)c21 [mitoxantrone]
Malignant CLL cells; patients P1.0105, P2.0019 and P2.035, FIG. 4
  ex vivo patient response: extreme resistance ex vivo
Malignant CLL cells; [3]
  ex vivo efficacy (resistant / sensitive): resistant
Malignant CLL cells
  induction of apoptosis after 24 hours: ~50%

## COc1ccc2[nH]c([S+]([O-])Cc3ncc(C)c(OC)c3C)nc2c1 (centres unmarked) [omeprazole]
Malignant CLL cells; sample of one CLL patient, FIG. 12
  apoptotic rate (Annexin V positive cells) compared with cytotoxic agents: showed similar apoptotic rates as the cytotoxic agents

## Fc1ccc([C@@H]2CCNC[C@H]2COc2ccc3c(c2)OCO3)cc1 [paroxetine]
Malignant CLL cells
  ex vivo efficacy in killing malignant cells compared with approved cytotoxic drugs: ex vivo efficacy similar to that of the approved cytotoxic drugs
  ability of SSRIs to induce apoptosis in malignant CLL cells: induce apoptosis similarly to clinically approved cytotoxic drugs
Malignant CLL cells; approximately 30 μM, whole blood sample from a CLL patient, FIG. 7
  apoptosis in leukemic cells: ~100%
T and NK cells
  apoptosis in T and NK cells: 15%

## CN[C@H]1CC[C@@H](c2ccc(Cl)c(Cl)c2)c2ccccc21 [sertraline]
Malignant CLL cells
  ex vivo efficacy in killing malignant cells compared with approved cytotoxic drugs: ex vivo efficacy similar to that of the approved cytotoxic drugs
  induction of apoptosis after 24 hours: more than 90%
  ability of SSRIs to induce apoptosis in malignant CLL cells: induce apoptosis similarly to clinically approved cytotoxic drugs
Malignant CLL cells; CLL patient sample, sub-maximal dose of sertraline added to chlorambucil, upper curve of FIG. 11
  potentiation of chlorambucil-induced apoptosis: greatly enhanced the level of apoptosis
Malignant CLL cells; CLL sample, FIG. 28
  time to eliminate all malignant cells: ≤ 24 h
Malignant CLL cells; CLL sample, drug washed away, apoptosis measured at 24 or 48 hours, FIG. 28
  incubation with the sample required to induce maximal apoptosis: 30 min
MOLT-4 cells
  increase of the Apoptosis Index: up to 7 fold
[2]
  induction of active caspase-3: dramatically induced active caspase-3

## CN(C)C/C=C(/c1ccc(Br)cc1)c1cccnc1 [zimelidine]
Malignant CLL cells
  ability of SSRIs to induce apoptosis in malignant CLL cells: only 3 (paroxetine, fluoxetine, and sertraline) induce apoptosis similarly

## rituximab: antibody approved for CLL treatment
Malignant CLL cells; [3]
  ex vivo efficacy (resistant / sensitive): resistant
